Measurements as given in US20210403415A1, “COMPOUNDS AND METHODS TO ATTENUATE TUMOR PROGRESSION AND METASTASIS” (THE TRUSTEES OF INDIANA UNIVERSITY, priority 2018, published 2021).

Assays:
[1] = target: uPAR.uPA protein-protein interaction (Homo sapiens, UniProt Q03405); assay: Fluorescence polarization, urokinase receptor with peptide AE147; format: binding; settings: 24 h at 4° C.
Excerpt: (§1) The selectivity of the compounds was explored with two unrelated protein-protein interactions between (i) the urokinase receptor (uPAR) and its ligand urokinase (uPA); and (ii) the a subunit of the voltage-gated calcium channel Cav2.2 with its β subunit Cavβ3. […] Both proteins have cysteine residues capable of forming covalent adducts.
(§2) FIG. 4D illustrates BLI measurements of the binding of TEAD4 to captured Yap when biotin-labeled GST-Yap1 was captured onto streptavidin-conjugated biolayer interferometry sensors which were dipped into varying concentrations of TEAD4. (mean±s.d.; n=3). […] FIG. 4F illustrates measured fluorescence polarization when increasing concentration of HIS-TEAD2 was mixed with 16 nM FAM-Yap60-99 peptide (mean±s.d.; n=3). FIG. 4G illustrates measured fluorescence polarization when HIS-TEAD2 was incubated with increasing concentration of compounds for 24 h at 4° C. followed by addition of FAM-Yap60-99 (mean±s.d.; n=3). FIG. 4H illustrates measured fluorescence polarization when urokinase receptor (uPAR) was incubated with varying concentrations of compounds for 24 h at 4° C. followed by addition of a urokinase-derived fluorescently-labeled peptide AE147 (mean±s.d.; n=3). […]

[2] = target: Cav2.2 α·β protein-protein interaction (Homo sapiens, UniProt P54284); assay: Fluorescence polarization, Cavβ3 with labeled α-subunit peptide; format: binding; settings: 24 h at 4° C.
Sequence of Cav2.2 α·β protein-protein interaction (P54284 whole entry): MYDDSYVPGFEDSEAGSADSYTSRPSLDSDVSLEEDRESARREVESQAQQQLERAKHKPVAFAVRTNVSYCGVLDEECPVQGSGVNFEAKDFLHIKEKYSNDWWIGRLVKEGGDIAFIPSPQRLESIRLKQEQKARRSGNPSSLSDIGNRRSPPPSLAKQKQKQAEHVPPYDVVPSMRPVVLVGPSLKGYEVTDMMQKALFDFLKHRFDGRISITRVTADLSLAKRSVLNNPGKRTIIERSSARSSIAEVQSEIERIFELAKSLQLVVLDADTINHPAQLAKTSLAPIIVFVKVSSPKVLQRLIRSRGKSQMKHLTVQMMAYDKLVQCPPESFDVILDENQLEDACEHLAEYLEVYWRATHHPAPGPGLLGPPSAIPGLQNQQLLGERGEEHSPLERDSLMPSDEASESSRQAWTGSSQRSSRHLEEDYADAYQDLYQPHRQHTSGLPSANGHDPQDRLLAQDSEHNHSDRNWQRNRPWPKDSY
Excerpt: as §1, §2

[3] = target: T1, TEAD4 binding to full-length Yap1 (Homo sapiens, UniProt Q15561); assay: Biolayer interferometry, TEAD4 binding to captured full-length GST-Yap1; settings: 100 nM TEAD4 pre-incubated 24 or 48 h at 4° C.
T1 construct: TEAD4 (217-434), TEAD4 (217-434) Cys367Ser mutant and Yap1 (Full-length) were expressed as GST-fusion proteins; GST (N); made in house; host or cells: E. coli BL-21 (DE3), pGEX-6P-1
T1 sequence (Q15561 217-434): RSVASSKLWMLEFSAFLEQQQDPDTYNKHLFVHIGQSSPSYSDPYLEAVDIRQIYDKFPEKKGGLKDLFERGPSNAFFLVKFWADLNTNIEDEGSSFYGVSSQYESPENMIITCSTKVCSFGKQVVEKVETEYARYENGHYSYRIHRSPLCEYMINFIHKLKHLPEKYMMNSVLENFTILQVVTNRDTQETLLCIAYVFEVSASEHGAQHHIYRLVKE
Description: Biolayer interferometry was measured on OctetRed 384 (ForteBio, Menlo Park, Calif.) using PBS with 0.025% v/v Tween-20 at 30° C. with constant shaking at 1000 rpm. Streptavidin-conjugated sensors (ForteBio, Menlo Park, Calif.) were loaded with 30 μg/ml biotin-labeled GST-Yap or biocytin and were introduced to 1-1000 nM TEAD4. The sensors were regenerated with 5 mM HCl solution after each interaction. For compound inhibition study, 100 nM TEAD4 was pre-incubated with […] compound 2 in 2% v/v DMSO for 24 h at 4° C. before interaction with captured GST-Yap.

[4] = test system: TEAD4 Cys367Ala mutant transcriptional activity; assay: TEAD4 luciferase reporter assay with transfected Cys367Ala mutant in HEK-293 cells; format: cell-based
Description: HEK-293 cells plated at 2.4×10^4 cells/well in a 96-well microplate were transfected after 24 hours with the a pGL3.1 reporter containing the CTGF promoter and a plasmid encoding TK-Renilla luciferase in combination with control vectors or vectors that express Yap1 and TEAD4. After 48 h cells, were treated with 0.5, 1.0, 5.0 or 10 μM of compound 2 for another 48 h. Luciferase activity was measured according to the Dual-Glo luciferase assay (Promega) instructions using a Biotek Synergy Neo2 plate reader. Relative luciferase activity represents the ratio of firefly/renilla luminescence values.
The effect of compound 2 on the intracellular transcriptional activity of TEAD4 was compared to its effects on the interaction of TEAD4 with Yap (FIG. 7A-7F). […] To further establish the selectivity of the small molecule, the TEAD4 transcriptional activity luciferase reporter assays were repeated using instead transfected Cys367Ala mutant. […] To establish that compound 2 forms a covalent adduct with TEAD4 in cells, a biotin-conjugated variant termed compound 9 was synthesized. […] (A) The activity of the TEAD4 luciferase reporter was measured in HEK-293 cells at 24 h treated with either vehicle or compound 2 (TED-347); mean±s.d.; n=3 replicates. (B) The activity of the TEAD4 luciferase reporter was measured in HEK-293 cells treated with either vehicle or compound 2 (TED-347); mean±s.d.; n=2 replicates. […]

[5] = test system: human astrocytes; assay: MTS viability of normal astrocytes; format: cell-based; settings: 10 μM, 72 h
Description: Hippo signaling promotes tumor growth and invasion in a range of cancers including GBM. We investigated the effects of compounds 1, 2, and 5 on GBM cell viability using patient-derived GBM43 cells that were grown as three-dimensional spheroids (FIG. 8A). […] The potency of compounds 2 and 6 were compared to temozolomide, which is the standard of care for patients with glioblastoma. […] FIG. 11 illustrates the following: human astrocytes cells were plated 24 h before treatment in collagen I coated 96-well plates in Dulbecco's modified Eagle's medium, supplemented with 20 μg/mL insulin, 5 μg/mL N-acetylcysteine, 10% fetal bovine serum, 10 μM hydrocortisone and antibiotics; then treated with DMSO or TED-347 at indicated concentrations for 72 h at 37° C. and 5% CO2 in a humidified incubator. Stock MTS (Promega) solution (20 μL per 100 μL medium) was added to all wells of an assay, and plates were incubated at 37° C. for 4 h, and read on a BioTek Synergy 2 reader, using a test wavelength of 490 nm; mean±s.d.; n=2 replicates.

[6] = test system: TEAD4 transcriptional activity; assay: TEAD4 luciferase reporter in GBM43 cells; format: cell-based, human
Description: FIG. 8A illustrates relative percent viability of spheroids of patient-derived GBM43 glioblastoma cell lines were grown and treated with compound 1, compound 2, and compound 5; mean±s.d.; n=3 biological replicates. FIG. 8B illustrates the measured activity of the TEAD4 luciferase reporter in GBM43 cells treated with either vehicle or compound 2. CNYT corresponds to no transfection; mean±s.d.; n=3 biological replicates. FIG. 8C illustrates qRT-PCR analysis of CTGF levels following treatment of HEK-293T cells with compounds; mean±s.d.; n=3 biological replicates. FIG. 8D illustrates relative percent viability of spheroids of patient-derived GBM43 glioblastoma cell lines were grown and treated with temozolomide; mean±s.d. of biological replicates (n=3). P values were calculated using two-tailed t-tests. *P<0.05, **P<0.005, ***P<0.0005.

Sequence of uPAR.uPA protein-protein interaction (Q03405 23-305 limits assumed): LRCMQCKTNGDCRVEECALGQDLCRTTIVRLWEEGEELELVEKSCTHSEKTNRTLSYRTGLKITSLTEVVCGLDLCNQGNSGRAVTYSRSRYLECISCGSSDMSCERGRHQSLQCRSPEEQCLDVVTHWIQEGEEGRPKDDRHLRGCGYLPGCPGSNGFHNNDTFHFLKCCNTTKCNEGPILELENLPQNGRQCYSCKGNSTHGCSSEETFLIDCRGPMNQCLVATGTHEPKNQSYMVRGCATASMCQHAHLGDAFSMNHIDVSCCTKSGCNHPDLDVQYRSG

inhibition of uPAR.uPA interaction [1]: no inhibition
inhibition of Cav2.2 α·β interaction [2]: no inhibition
inhibition of TEAD4 binding to full-length Yap1 [3]: dose- and time-dependent inhibition
Structure (SMILES): O=C(CCl)c1ccccc1Nc1cccc(C(F)(F)F)c1 [Compound 2, 2-chloro-1-(2-((3-(trifluoromethyl)phenyl)amino)phenyl)ethanone]
inhibition of mutant TEAD4 transcriptional activity [4]: did not result in the inhibition
effect on cell viability of non-transformed normal astrocytes [5]: did not show any effect
TEAD4 transcriptional activity in GBM43 cells [6]: inhibited TEAD4 transcriptional activity
